“And” between values parts separate entries of the source, which are not always exact repeats. Equal entries are not always repeated.
Experiment: contact angle measurement (wettability)
Assay type: physicochemical
Settings: for Contact Angle: water, n = 2; for surface hydrophobicity: critical angle around 50°
Procedure: The contact angle instrument was EasyDrop DSA15E (Krüss, Hamburg, Germany). The syringe was a NE44, with a needle diameter of 0.5 mm (Krüss, Hamburg, Germany). The standards (Krüss, Hamburg, Germany) were CP24 20007107, contact angle Gauge#4=30.00°±0.3, Gauge#5=60.00°±0.3, Gauge#6=120.00°±0.3.
The powder was pressed (approx 50 mg powder, 3 tons, 2 min) in tablets and analyzed by contact angle measuremnt. The angle between the solid and the liquid is measured after 0 and up to 60 seconds using water.
All determinations used the above method, and the limit for the standards measurements are well within the given limits.

| SMILES | Contact Angle (0 sec) | Contact Angle (30 sec) | Contact Angle (60 sec) | surface hydrophobicity |
| --- | --- | --- | --- | --- |
| CNc1cc2[nH]c(=O)n(-c3ccc(NC(=O)[N-]S(=O)(=O)c4ccc(Cl)s4)cc3)c(=O)c2cc1F.[K+] [A] | 78.8 ° | 53.3 ° | 51.0 ° | hydrophobic |
| CNc1cc2[nH]c(=O)n(-c3ccc(NC(=O)[N-]S(=O)(=O)c4ccc(Cl)s4)cc3)c(=O)c2cc1F.[K+] [B] | 72.4 ° and 79.7 ° | 54.6 ° and 55.2 ° | 53.5 ° and 52.8 ° | hydrophobic |
| CNc1cc2[nH]c(=O)n(-c3ccc(NC(=O)NS(=O)(=O)c4ccc(Cl)s4)cc3)c(=O)c2cc1F [Free acid, [4-(6-fluoro-7-methylamino-2,4-dioxo-1,4-dihydro-2H-quinazolin-3-yl)-phenyl]-5-chloro-thiophen-2-yl-sulfonylurea] | 65.9 ° | 60.8 ° | 60.1 ° | – |
